According to ChEMBL document CHEMBL3885881, “DrugMatrix”:

Organism: Rattus norvegicus
Assay: DrugMatrix - Regimen: Daily Repeat
Type: toxicity, organism-based, Sprague-Dawley
Parameters: regimen Daily Repeat, gender Male, age 6-8 weeks
Conditions: in vivo, vehicle 100 % SALINE; for ABSOLUTE BASOPHIL / ABSOLUTE EOSINOPHIL / ABSOLUTE LYMPHOCYTE / ABSOLUTE MONOCYTE / BASOPHIL / EOSINOPHIL / ERYTHROCYTE COUNT / HEMATOCRIT / HEMOGLOBIN / LEUKOCYTE COUNT / LYMPHOCYTE / MEAN CORPUSCULAR HEMOGLOBIN / MEAN CORPUSCULAR HEMOGLOBIN CONCENTRATION / MEAN CORPUSCULAR VOLUME / MONOCYTE / NEUTROPHIL / NUCLEATED RED BLOOD CELLS / PLATELET COUNT: tissue Blood
[1] = ip, 0.5 mg/kg, […], tissue Plasma, route intraperitoneal, dose level High, time 28 day
[2] = iv, 0 mg/kg, 72 h, dose level Control, time 3 day
[3] = iv, 0 mg/kg, 72 h, tissue Plasma, dose level Control, time 3 day
[4] = iv, 0 mg/kg, 120 h, dose level Control, time 5 day
[5] = iv, 0 mg/kg, 120 h, tissue Plasma, dose level Control, time 5 day
[6] = iv, 2 mg/kg, 72 h, dose level High, time 3 day
[7] = iv, 2 mg/kg, 72 h, tissue Plasma, dose level High, time 3 day
[8] = iv, 2 mg/kg, 120 h, dose level High, time 5 day
[9] = iv, 2 mg/kg, 120 h, tissue Plasma, dose level High, time 5 day

Sequence: CISPLATIN
- ALKALINE PHOSPHATASE [1]: 134.22 u/L
- ASPARTATE AMINOTRANSFERASE [1]: 78.67 u/L
- BLOOD UREA NITROGEN [1]: 25 mg/dL
- CHOLESTEROL [1]: 63.11 mg/dL
- CREATININE [1]: 0.82 mg/dL
- GLUCOSE [1]: 108.67 mg/dL
- LACTATE DEHYDROGENASE [1]: 80.89 u/L
- LIPASE [1]: 18.22 u/L
- PHOSPHORUS [1]: 9.11 mg/dL
- POTASSIUM [1]: 6.18 MEQ/L
- SODIUM [1]: 151.78 MEQ/L
- TOTAL BILIRUBIN [1]: 0.29 mg/dL
- URIC ACID [1]: 1.11 mg/dL
- ABSOLUTE BASOPHIL [2]: 0 CELLS/uL
- ABSOLUTE EOSINOPHIL [2]: 0 CELLS/uL
- ABSOLUTE LYMPHOCYTE [2]: 7026.17 CELLS/uL
- ABSOLUTE MONOCYTE [2]: 44.33 CELLS/uL
- BASOPHIL [2]: 0%
- EOSINOPHIL [2]: 0%
- ERYTHROCYTE COUNT [2]: 5.49 x10E6/uL
- HEMATOCRIT [2]: 33.67%
- HEMOGLOBIN [2]: 13.17 G/DL
- LEUKOCYTE COUNT [2]: 7.45 x10E3/uL
- LYMPHOCYTE [2]: 94%
- MEAN CORPUSCULAR HEMOGLOBIN [2]: 24.03 pg
- MEAN CORPUSCULAR HEMOGLOBIN CONCENTRATION [2]: 39.15 G/DL
- MEAN CORPUSCULAR VOLUME [2]: 61.4 fL
- MONOCYTE [2]: 0.67%
- NEUTROPHIL [2]: 5.33%
- NUCLEATED RED BLOOD CELLS [2]: 0.17 /100WBC
- PLATELET COUNT [2]: 1062.5 x10E3/uL
- ALANINE AMINOTRANSFERASE [3]: 53.17 u/L
- ALKALINE PHOSPHATASE [3]: 339.83 u/L
- ASPARTATE AMINOTRANSFERASE [3]: 83.33 u/L
- BLOOD UREA NITROGEN [3]: 16 mg/dL
- CARBON DIOXIDE [3]: 32.5 mmol/L
- CHLORIDE [3]: 98 MEQ/L
- CHOLESTEROL [3]: 74.67 mg/dL
- CREATININE [3]: 0.2 mg/dL
- GLUCOSE [3]: 128.67 mg/dL
- LACTATE DEHYDROGENASE [3]: 110.33 u/L
- LIPASE [3]: 9 u/L
- PHOSPHORUS [3]: 11.73 mg/dL
- POTASSIUM [3]: 6.34 MEQ/L
- TOTAL BILIRUBIN [3]: 0.18 mg/dL
- URIC ACID [3]: 1.28 mg/dL
- ABSOLUTE BASOPHIL [4]: 0 CELLS/uL
- ABSOLUTE EOSINOPHIL [4]: 26.67 CELLS/uL
- ABSOLUTE LYMPHOCYTE [4]: 8334.17 CELLS/uL
- ABSOLUTE MONOCYTE [4]: 29.5 CELLS/uL
- BASOPHIL [4]: 0%
- EOSINOPHIL [4]: 0.33%
- ERYTHROCYTE COUNT [4]: 5.44 x10E6/uL
- HEMATOCRIT [4]: 33.77%
- HEMOGLOBIN [4]: 13.05 G/DL
- LEUKOCYTE COUNT [4]: 8.98 x10E3/uL
- LYMPHOCYTE [4]: 92.33%
- MEAN CORPUSCULAR HEMOGLOBIN [4]: 24 pg
- MEAN CORPUSCULAR HEMOGLOBIN CONCENTRATION [4]: 38.67 G/DL
- MEAN CORPUSCULAR VOLUME [4]: 62.05 fL
- MONOCYTE [4]: 0.33%
- NEUTROPHIL [4]: 7%
- NUCLEATED RED BLOOD CELLS [4]: 0 /100WBC
- PLATELET COUNT [4]: 987 x10E3/uL
- ALANINE AMINOTRANSFERASE [5]: 43.5 u/L
- ALKALINE PHOSPHATASE [5]: 310.17 u/L
- ASPARTATE AMINOTRANSFERASE [5]: 76.67 u/L
- BLOOD UREA NITROGEN [5]: 17 mg/dL
- CHLORIDE [5]: 100.33 MEQ/L
- CHOLESTEROL [5]: 69.33 mg/dL
- CREATININE [5]: 0.22 mg/dL
- GLUCOSE [5]: 155.17 mg/dL
- PHOSPHORUS [5]: 11.2 mg/dL
- POTASSIUM [5]: 5.5 MEQ/L
- TOTAL BILIRUBIN [5]: 0.18 mg/dL
- URIC ACID [5]: 0.88 mg/dL
- ABSOLUTE BASOPHIL [6]: 0 CELLS/uL
- ABSOLUTE EOSINOPHIL [6]: 0 CELLS/uL
- ABSOLUTE LYMPHOCYTE [6]: 6398.67 CELLS/uL
- ABSOLUTE MONOCYTE [6]: 72 CELLS/uL
- BASOPHIL [6]: 0%
- EOSINOPHIL [6]: 0%
- ERYTHROCYTE COUNT [6]: 5.34 x10E6/uL
- HEMATOCRIT [6]: 33.2%
- HEMOGLOBIN [6]: 13.07 G/DL
- LEUKOCYTE COUNT [6]: 6.77 x10E3/uL
- LYMPHOCYTE [6]: 94.67%
- MONOCYTE [6]: 1%
- NEUTROPHIL [6]: 4.33%
- NUCLEATED RED BLOOD CELLS [6]: 0 /100WBC
- PLATELET COUNT [6]: 1193.33 x10E3/uL
- ALANINE AMINOTRANSFERASE [7]: 59.33 u/L
- ALKALINE PHOSPHATASE [7]: 321.33 u/L
- ASPARTATE AMINOTRANSFERASE [7]: 83.33 u/L
- BLOOD UREA NITROGEN [7]: 45.67 mg/dL
- CARBON DIOXIDE [7]: 28 mmol/L
- CHLORIDE [7]: 98.67 MEQ/L
- CHOLESTEROL [7]: 63.33 mg/dL
- CREATININE [7]: 0.81 mg/dL
- GLUCOSE [7]: 165.67 mg/dL
- LACTATE DEHYDROGENASE [7]: 157 u/L
- LIPASE [7]: 8.33 u/L
- PHOSPHORUS [7]: 9.77 mg/dL
- POTASSIUM [7]: 5.3 MEQ/L
- TOTAL BILIRUBIN [7]: 0.3 mg/dL
- URIC ACID [7]: 0.97 mg/dL
- ABSOLUTE BASOPHIL [8]: 0 CELLS/uL
- ABSOLUTE EOSINOPHIL [8]: 0 CELLS/uL
- ABSOLUTE LYMPHOCYTE [8]: 6841 CELLS/uL
- ABSOLUTE MONOCYTE [8]: 28.67 CELLS/uL
- BASOPHIL [8]: 0%
- EOSINOPHIL [8]: 0%
- ERYTHROCYTE COUNT [8]: 5.89 x10E6/uL
- HEMOGLOBIN [8]: 14.03 G/DL
- LEUKOCYTE COUNT [8]: 7.07 x10E3/uL
- LYMPHOCYTE [8]: 97%
- MEAN CORPUSCULAR HEMOGLOBIN [8]: 23.87 pg
- MEAN CORPUSCULAR HEMOGLOBIN CONCENTRATION [8]: 39.17 G/DL
- MONOCYTE [8]: 0.33%
- NEUTROPHIL [8]: 2.67%
- NUCLEATED RED BLOOD CELLS [8]: 0 /100WBC
- PLATELET COUNT [8]: 1329.67 x10E3/uL
- ALANINE AMINOTRANSFERASE [9]: 52 u/L
- ALKALINE PHOSPHATASE [9]: 249 u/L
- ASPARTATE AMINOTRANSFERASE [9]: 79.33 u/L
- BLOOD UREA NITROGEN [9]: 37.67 mg/dL
- CHLORIDE [9]: 100 MEQ/L
- CHOLESTEROL [9]: 80 mg/dL
- CREATININE [9]: 0.65 mg/dL
- GLUCOSE [9]: 137.33 mg/dL
- LACTATE DEHYDROGENASE [9]: 134.33 u/L
- LIPASE [9]: 11.67 u/L
- PHOSPHORUS [9]: 9.43 mg/dL
- POTASSIUM [9]: 5.31 MEQ/L
- TOTAL BILIRUBIN [9]: 0.17 mg/dL
- URIC ACID [9]: 0.67 mg/dL
